Where two headings read alike, the source gives them in different places.
Legend:
CDK4/cyclin D3 = molecular target: T1, CDK4/cyclin D3 (Homo sapiens, UniProt P11802); experiment: Human CDK4/cyclin D3 inhibitory activity (QS S Assist CDK4/Cyclin D3_FP Kit, IMAP fluorescence polarization); type: biochemical
T1 construct: purchased Carna Biosciences, Inc. QS S Assist CDK4/Cyclin D3_FP Kit
Method in brief: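 IMAP fluorescence-polarization kinase assay with kit ATP/substrate/metal mix and 12.5 to 25 ng/well enzyme in 20 mM HEPES pH 7.4, 0.01% Tween20, 2 mM DTT. Reaction ran 45 min at room temperature, then binding reagent was added for 30 min in the dark. IC50 was taken from dose-response fits of percent inhibition.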

CDK2/cyclin A2 = molecular target: T2, CDK2/cyclin A2 (Homo sapiens, UniProt P24941); experiment: Human CDK2/cyclin A2 inhibitory activity (QS S Assist CDK2/Cyclin A2_FP Kit, IMAP fluorescence polarization); type: biochemical
T2 construct: purchased Carna Biosciences, Inc. QS S Assist CDK2/Cyclin A2_FP Kit
Method in brief: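 Kinase activity read as fluorescence polarization (485/535 nm) after phosphorylated fluorescent substrate binds IMAP reagent (30 min, RT, dark). Enzyme (2.5 ng/well) reacted 60 min at RT with ATP/substrate/metal in HEPES pH 7.4 buffer with Tween 20 and DTT; no-enzyme wells define 0% activity; IC50 by curve fit.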

[1] = 50% inhibitory concentration against CDK4/cyclin D3, given as class symbol
[2] = 50% inhibitory concentration against CDK2/cyclin A2, given as class symbol
[3] = Human CDK4/cyclin D3 inhibitory activity, read-out: CDK4 Activity symbol
[4] = Human CDK2/cyclin A2 inhibitory activity, read-out: CDK2 Activity symbol

T1 sequence (P11802 whole entry): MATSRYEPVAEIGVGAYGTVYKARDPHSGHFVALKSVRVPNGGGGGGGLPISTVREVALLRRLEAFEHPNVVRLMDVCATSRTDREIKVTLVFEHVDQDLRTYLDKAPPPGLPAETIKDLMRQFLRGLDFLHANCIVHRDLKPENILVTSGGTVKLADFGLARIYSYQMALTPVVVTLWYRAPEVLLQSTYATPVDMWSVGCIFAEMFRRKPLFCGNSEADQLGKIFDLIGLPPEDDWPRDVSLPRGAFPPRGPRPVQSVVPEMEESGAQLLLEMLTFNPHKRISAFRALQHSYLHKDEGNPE
T1 sequence (P30281 whole entry partner): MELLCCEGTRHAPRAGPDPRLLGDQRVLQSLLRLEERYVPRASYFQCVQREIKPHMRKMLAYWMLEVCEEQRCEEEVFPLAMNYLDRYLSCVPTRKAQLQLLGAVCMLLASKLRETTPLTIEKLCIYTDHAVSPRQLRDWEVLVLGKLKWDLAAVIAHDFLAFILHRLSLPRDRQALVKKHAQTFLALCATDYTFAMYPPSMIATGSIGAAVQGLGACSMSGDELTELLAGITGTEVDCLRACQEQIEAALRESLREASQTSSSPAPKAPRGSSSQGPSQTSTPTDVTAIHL

Compound	IC50 (CDK4/cyclin D3; [1]) [nM]	IC50 (CDK2/cyclin A2; [2]) [nM]	IC50 (CDK4/cyclin D3; [3]) [nM]	IC50 (CDK2/cyclin A2; [4]) [nM]
CO[C@H](C)c1cc2cnc(Nc3ccc(CN4CCN(CCO)CC4)cn3)nc2c(N[C@H]2CC[C@H](O)CC2)n1 [Compound 917]	< 10	≥ 100		
CC(C)Nc1nc([C@@H](C)O)cc2cnc(Nc3ccc(N4CC5(CCN5)C4)nn3)nc12 [Compound 573]			< 10	≥ 100
CC(C)Nc1nc(C(F)F)cc2cnc(Nc3ccc(CN4CCOCCC4=O)cn3)nc12 [Compound 173]			< 10	10 to 100
CC(C)Nc1nc(C(F)F)cc2cnc(Nc3ccc(CCCNS(C)(=O)=O)cn3)nc12 [Compound 153]			< 10	10 to 100
CC(C)Nc1nc([C@@H](C)O)cc2cnc(Nc3ccc(N4CCC(OCC(=O)O)CC4)nn3)nc12 [Compound 702]	10 to 100	≥ 100		
CO[C@H](C)c1cc2cnc(Nc3ccc(CN4CCNCC4)cn3)nc2c(N[C@H]2CC[C@H](C(=O)O)CC2)n1 [Compound 343]			< 10	≥ 100
CC(=O)c1cc2cnc(Nc3ccc(N4CCNCC4=O)cn3)nc2c(NC(C)C)n1 [Compound 743]	< 10	≥ 100		
CC(C)Nc1nc([C@@H](C)O)cc2cnc(Nc3ccc(N4CCn5ccnc5C4)nn3)nc12 [Compound 898]	< 10	≥ 100		
CC(C)Nc1nc([C@@H](C)O)cc2cnc(Nc3ccc(N4CCN(C=O)CC4=O)cn3)nc12 [Compound 319]			< 10	≥ 100
C[C@@H](O)c1cc2cnc(Nc3ccc(N4CCNCC4)nn3)nc2c(NCC2CCOC2)n1 (some centres unmarked) [Compound 284]			< 10	≥ 100
Cc1nc(Nc2ncc3cc(C4CCOC4)nc(NC(C)C)c3n2)ccc1N1CCNCC1=O (single isomer, unassigned) [Compound 875]	< 10	≥ 100		
CC(C)Nc1nc([C@@H](C)O)cc2cnc(Nc3ccc(O[C@@H]4CCC[C@H]4N)cn3)nc12 [Compound 772]	< 10	≥ 100		
CC(C)Nc1nc(C(F)F)cc2cnc(Nc3ccc(CNC(N)=O)cn3)nc12 [Compound 138]			< 10	10 to 100
CC(O)c1cc2cnc(Nc3ccc(OC4CCNCC4F)cn3)nc2c(NC2CCC(C)(C)OC2)n1 (centres unmarked) [Compound 647]	< 10	≥ 100		
C[C@@H](O)c1cc2cnc(Nc3ccc(N4CCNCC4=O)cn3)nc2c(NC(C)(C)C)n1 [Compound 795]	< 10	10 to 100		
CC(C)Nc1nc(C2CCCOC2)cc2cnc(Nc3ccc(N4CCNCC4=O)cn3)nc12 (centres unmarked) [Compound 807]	10 to 100	≥ 100		
CC(C)Nc1nc(C(C)O)cc2cnc(Nc3ccc(N4CCNC(C(F)(F)F)C4)nn3)nc12 (single isomer, unassigned) [Compound 989]	< 10	≥ 100		
CC(C)Nc1nc(C(F)F)cc2cnc(Nc3ccc(CCC(C)(C)O)cn3)nc12 [Compound 154]			< 10	≥ 100
CO[C@H](C)c1cc2cnc(Nc3ccc(CN4CCNC(=O)C4)cn3)nc2c(NC(C)C)n1 [Compound 176]			10 to 100	≥ 100
CCCNc1nc([C@@H](C)O)cc2cnc(Nc3ccc(N4CCNCC4)c(C)n3)nc12 [Compound 1092]	< 10	≥ 100		
CCCNc1nc([C@@H](C)O)cc2cnc(Nc3ccc(CN4CC5CCC(C4)N5C)cn3)nc12 [Compound 1223]	< 10	≥ 100		
C[C@@H](O)c1cc2cnc(Nc3ccc(CN4CCN(C)CC4)cn3)nc2c(NC(C)(C)CO)n1 [Compound 1106]	< 10	≥ 100		
O=C1CNCCN1c1ccc(Nc2ncc3cc(C(F)F)nc(N[C@H]4CCCOC4)c3n2)nc1 [Compound 849]	< 10	10 to 100		
CC(C)Nc1nc(C(F)F)cc2cnc(Nc3ccc(C4CCN(S(C)(=O)=O)CC4)cn3)nc12 [Compound 179]			10 to 100	≥ 100
CC(C)Nc1nc([C@@H](C)O)cc2cnc(Nc3ccc(N4CCC(O)CC4=O)cn3)nc12 (some centres unmarked) [Compound 926]	< 10	≥ 100		

Reference: US10124004B2, “Pyrido[3,4-d]pyrimidine derivative and pharmaceutically acceptable salt thereof” (Teijin Pharma Limited, priority 2015, dated 2018)
